Results: patent publication US7880007B2, “Bicyclic substituted phenyl piperidine modulators of muscarinic receptors” (Vertex Pharmaceuticals Incorporated, priority 2004, dated 2011)

Key:
Type in all cases: cell-based
[1] = target: T1, M4 muscarinic receptor (Homo sapiens, UniProt P08173); assay: Functional mobilization of intracellular calcium (FLIPR), M4-CHO cells; details: for M4 Activity: M4-CHO cells, calcium mobilization (FLIPR)
T1 construct: expressed in transfected cells; host or cells: CHO (M4-CHO)
T1 sequence (P08173 1-479): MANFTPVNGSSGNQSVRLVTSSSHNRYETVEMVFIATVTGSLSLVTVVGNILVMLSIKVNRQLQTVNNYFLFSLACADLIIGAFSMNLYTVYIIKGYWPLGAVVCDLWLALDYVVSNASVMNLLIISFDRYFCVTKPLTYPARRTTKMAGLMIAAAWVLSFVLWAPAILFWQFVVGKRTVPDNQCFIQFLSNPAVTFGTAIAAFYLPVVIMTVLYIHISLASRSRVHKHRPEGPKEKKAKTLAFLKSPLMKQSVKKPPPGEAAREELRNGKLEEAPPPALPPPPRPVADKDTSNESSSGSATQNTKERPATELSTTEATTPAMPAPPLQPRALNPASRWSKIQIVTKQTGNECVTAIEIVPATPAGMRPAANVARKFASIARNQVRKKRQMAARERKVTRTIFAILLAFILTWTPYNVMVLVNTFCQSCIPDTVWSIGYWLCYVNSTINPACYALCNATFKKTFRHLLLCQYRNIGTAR
Method in brief: (§1)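 CHO cells expressing human M1–M4 receptors loaded with Fluo-3 AM or Calcium 3 dye (1 mM probenecid, pH 7.4); 0.5% DMSO final. Agonist mode: compound added directly; antagonist mode: 15 min pre-incubation or co-application, then carbachol at EC80. Fluorescence read 60 s on FLIPR; efficacy relative to carbachol maximum.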

[2] = target: T2, M3 muscarinic receptor (Homo sapiens, UniProt P20309); assay: Functional mobilization of intracellular calcium (FLIPR), M3-CHO cells; details: for M3 Activity: M3-CHO cells, calcium mobilization (FLIPR)
T2 construct: expressed in transfected cells; host or cells: CHO (M3-CHO)
T2 sequence (P20309 whole entry): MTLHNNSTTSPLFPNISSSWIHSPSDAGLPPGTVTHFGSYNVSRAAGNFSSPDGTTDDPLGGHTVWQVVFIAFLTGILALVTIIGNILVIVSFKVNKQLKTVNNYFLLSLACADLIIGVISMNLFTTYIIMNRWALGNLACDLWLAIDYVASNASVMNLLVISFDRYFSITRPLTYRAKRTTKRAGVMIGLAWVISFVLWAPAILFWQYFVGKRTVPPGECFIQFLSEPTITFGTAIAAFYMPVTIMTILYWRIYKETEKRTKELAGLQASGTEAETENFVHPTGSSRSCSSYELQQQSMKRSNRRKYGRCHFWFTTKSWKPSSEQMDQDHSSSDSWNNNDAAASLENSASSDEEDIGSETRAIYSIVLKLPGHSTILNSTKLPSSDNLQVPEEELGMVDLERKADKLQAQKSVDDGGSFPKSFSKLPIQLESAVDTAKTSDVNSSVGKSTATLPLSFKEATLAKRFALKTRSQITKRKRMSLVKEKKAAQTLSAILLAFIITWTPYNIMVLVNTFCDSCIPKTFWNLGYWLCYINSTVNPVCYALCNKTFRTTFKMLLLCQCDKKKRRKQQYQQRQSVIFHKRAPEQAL
Method in brief: as §1

[3] = target: T3, M2 muscarinic receptor (Homo sapiens, UniProt P08172); assay: Functional mobilization of intracellular calcium (FLIPR), M2-CHO cells; details: for M2 Activity: M2-CHO cells, calcium mobilization (FLIPR)
T3 construct: expressed in transfected cells; host or cells: CHO (M2-CHO)
T3 sequence (P08172 1-466): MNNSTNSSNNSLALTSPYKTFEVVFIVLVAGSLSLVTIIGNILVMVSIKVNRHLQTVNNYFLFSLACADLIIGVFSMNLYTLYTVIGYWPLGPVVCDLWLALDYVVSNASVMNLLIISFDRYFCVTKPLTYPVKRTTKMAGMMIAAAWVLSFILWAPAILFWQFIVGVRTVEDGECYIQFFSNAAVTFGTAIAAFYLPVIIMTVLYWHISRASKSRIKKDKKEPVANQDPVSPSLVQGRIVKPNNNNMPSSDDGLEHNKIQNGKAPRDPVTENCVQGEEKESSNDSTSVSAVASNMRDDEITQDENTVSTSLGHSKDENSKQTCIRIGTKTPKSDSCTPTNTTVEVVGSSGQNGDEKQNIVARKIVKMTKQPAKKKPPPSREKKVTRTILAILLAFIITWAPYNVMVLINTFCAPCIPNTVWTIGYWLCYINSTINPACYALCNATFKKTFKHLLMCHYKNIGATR
Method in brief: as §1

[4] = target: T4, M1 muscarinic receptor (Homo sapiens, UniProt P11229); assay: Functional mobilization of intracellular calcium (FLIPR), M1-CHO cells; details: for M1 Activity: M1-CHO cells, calcium mobilization (FLIPR)
T4 construct: expressed in transfected cells; host or cells: CHO (M1-CHO)
T4 sequence (P11229 1-460): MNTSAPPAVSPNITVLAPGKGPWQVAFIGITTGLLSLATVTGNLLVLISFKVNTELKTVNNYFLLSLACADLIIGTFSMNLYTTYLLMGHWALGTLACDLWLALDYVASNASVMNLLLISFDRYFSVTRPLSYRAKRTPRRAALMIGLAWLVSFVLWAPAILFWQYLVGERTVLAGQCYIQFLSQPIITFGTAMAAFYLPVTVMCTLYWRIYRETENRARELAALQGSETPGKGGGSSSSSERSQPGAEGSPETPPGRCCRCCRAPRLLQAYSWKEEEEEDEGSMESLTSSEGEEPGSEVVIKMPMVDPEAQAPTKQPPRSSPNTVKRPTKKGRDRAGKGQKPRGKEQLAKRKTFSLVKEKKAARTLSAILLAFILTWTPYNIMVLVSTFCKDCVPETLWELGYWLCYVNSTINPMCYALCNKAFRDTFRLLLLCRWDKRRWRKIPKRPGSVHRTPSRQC
Method in brief: as §1

[5] = 100% efficacy = maximum response obtained with the Carbachol control

| SMILES | Emax [1, 5] [%] | M4 Activity [1] | Emax [2, 5] [%] | M3 Activity [2] | Emax [3, 5] [%] | M2 Activity [3] | Emax [4, 5] [%] | M1 Activity [4] | M4 Efficacy [1, 5] | M3 Efficacy [2, 5] | M2 Efficacy [3, 5] | M1 Efficacy [4, 5] |
| --- | --- | --- | --- | --- | --- | --- | --- | --- | --- | --- | --- | --- |
| CNC(=O)c1ccc(-c2ccc(OC)c(C3CCN(C4CCCCC4)CC3)c2)cc1Cl [Compound 353] | 25 to 100 | ++ (activity was measured to be from 1.0 μM to 5.0 μM) | < 25 | + (activity was measured to be greater than 5.0 μM) | < 25 | + (activity was measured to be greater than 5.0 μM) | < 25 | + (activity was measured to be greater than 5.0 μM) |  |  |  |  |
| COc1ccc(F)cc1C1CCN([C@@H]2C[C@H]3CC[C@H]2C3)CC1 [Compound 354] | 25 to 100 | +++ (activity was measured to be less than 1.0 μM) | < 25 | + (activity was measured to be greater than 5.0 μM) | 25 to 100 | ++ (activity was measured to be from 1.0 μM to 5.0 μM) | 25 to 100 | +++ (activity was measured to be less than 1.0 μM) |  |  |  |  |
| CCOC(=O)N1C2CCC1CC(N1CCC(c3ccccc3OC(F)(F)F)CC1)C2 (stereo not shown) [Compound 355] | 25 to 100 | +++ (activity was measured to be less than 1.0 μM) | < 25 | + (activity was measured to be greater than 5.0 μM) | < 25 | + (activity was measured to be greater than 5.0 μM) | 25 to 100 | +++ (activity was measured to be less than 1.0 μM) |  |  |  |  |
| COc1ccc(Cl)cc1C1(F)CCN(C2CC3CCC(C3)C2)CC1 (stereo not shown) [Compound 356] | 25 to 100 | +++ (activity was measured to be less than 1.0 μM) | < 25 | + (activity was measured to be greater than 5.0 μM) | 25 to 100 | + (activity was measured to be greater than 5.0 μM) | 25 to 100 | + (activity was measured to be greater than 5.0 μM) |  |  |  |  |
| COc1ccc(-c2ccc(S(C)(=O)=O)cc2)cc1C1CCN(C2CCOCC2)CC1 [Compound 357] | < 25 | + (activity was measured to be greater than 5.0 μM) | < 25 | + (activity was measured to be greater than 5.0 μM) | < 25 | + (activity was measured to be greater than 5.0 μM) | < 25 | + (activity was measured to be greater than 5.0 μM) |  |  |  |  |
| Cc1ccc(C(F)(F)F)cc1C1CCN(C2CCOCC2)CC1 [Compound 358] | 25 to 100 | ++ (activity was measured to be from 1.0 μM to 5.0 μM) | < 25 | + (activity was measured to be greater than 5.0 μM) | 25 to 100 | + (activity was measured to be greater than 5.0 μM) | 25 to 100 | ++ (activity was measured to be from 1.0 μM to 5.0 μM) |  |  |  |  |
| COc1ccc(-c2ccc(C(=O)N(C)C)cc2)cc1C1CCN([C@H]2C[C@H]3CC[C@H]2C3)CC1 [Compound 360] | 25 to 100 | ++ (activity was measured to be from 1.0 μM to 5.0 μM) | < 25 | + (activity was measured to be greater than 5.0 μM) | < 25 | + (activity was measured to be greater than 5.0 μM) | < 25 | + (activity was measured to be greater than 5.0 μM) |  |  |  |  |
| COc1ccc(-c2ccc(C(C)(C)C#N)cc2)cc1C1CCN(C2CC3CCC(C3)C2)CC1 (stereo not shown) [Compound 361] | 25 to 100 | + (activity was measured to be greater than 5.0 μM) | < 25 | + (activity was measured to be greater than 5.0 μM) | < 25 | + (activity was measured to be greater than 5.0 μM) | 25 to 100 | + (activity was measured to be greater than 5.0 μM) |  |  |  |  |
| CCCON=C1CCC(N2CCC(c3cc(Cl)ccc3OC)CC2)CC1 (stereo not shown) [Compound 362] |  | +++ (activity was measured to be less than 1.0 μM) |  | + (activity was measured to be greater than 5.0 μM) |  | ++ (activity was measured to be from 1.0 μM to 5.0 μM) |  | +++ (activity was measured to be less than 1.0 μM) | ++ (efficacy was calculated to be from 100% to 25%) | + (efficacy was calculated to be less than 25%) | ++ (efficacy was calculated to be from 100% to 25%) | ++ (efficacy was calculated to be from 100% to 25%) |
| CCOC(=O)N1[C@@H]2CC[C@@H]1CC(N1CCC(c3cc(C)ccc3OC)CC1)C2 (stereo partly shown) [Compound 363] | 25 to 100 | +++ (activity was measured to be less than 1.0 μM) | 25 to 100 | + (activity was measured to be greater than 5.0 μM) | 25 to 100 | +++ (activity was measured to be less than 1.0 μM) | 25 to 100 | +++ (activity was measured to be less than 1.0 μM) |  |  |  |  |
| CCOC(=O)N1CCC(CN2CCC(c3ccc(F)cc3OC)CC2)CC1 [Compound 364] | 25 to 100 | +++ (activity was measured to be less than 1.0 μM) | < 25 | + (activity was measured to be greater than 5.0 μM) | < 25 | + (activity was measured to be greater than 5.0 μM) | 25 to 100 | +++ (activity was measured to be less than 1.0 μM) |  |  |  |  |
| CCCC1CCC(N2CCC(F)(c3cc(Cl)ccc3OC)CC2)CC1 (stereo not shown) [Compound 365] | 25 to 100 | + (activity was measured to be greater than 5.0 μM) | < 25 | + (activity was measured to be greater than 5.0 μM) | 25 to 100 | + (activity was measured to be greater than 5.0 μM) | 25 to 100 | + (activity was measured to be greater than 5.0 μM) |  |  |  |  |
| COc1ccc(-c2cccc(F)c2)cc1C1CCN([C@H]2C[C@H]3CC[C@H]2C3)CC1 [Compound 366] | 25 to 100 | + (activity was measured to be greater than 5.0 μM) | < 25 | + (activity was measured to be greater than 5.0 μM) | < 25 | + (activity was measured to be greater than 5.0 μM) | < 25 | + (activity was measured to be greater than 5.0 μM) |  |  |  |  |
| COc1ccc(Cl)cc1C1(F)CCN([C@H]2C[C@H]3CC[C@H]2C3)CC1 [Compound 367] | < 25 | + (activity was measured to be greater than 5.0 μM) | < 25 | + (activity was measured to be greater than 5.0 μM) | < 25 | + (activity was measured to be greater than 5.0 μM) | < 25 | + (activity was measured to be greater than 5.0 μM) |  |  |  |  |
